Patent publication US8063025B2, “Nucleoside prodrugs and uses thereof” (Metabasis Therapeutics, Inc., priority 2007, dated 2011)
Where two headings read alike, the source gives them in different places.

How the values were obtained:
[1] = molecular target: T1, HCV polymerase (NS5B570n-Con1) (Hepatitis C virus genotype 1b, UniProt Q9WMX2); test: HCV NS5B RNA polymerase activity; assay type: biochemical, HCV Con1 strain
T1 construct: contains a 21 amino acid deletion at the C-terminus relative to the full-length HCV polymerase; 6-histidine (N); made in house; host or cells: E. coli BL21 (DE) pLysS, plasmid pET17b
Experimental: The enzymatic activity of HCV polymerase (NS5B570n-Con1) was measured as the incorporation of radiolabeled nucleotide monophosphates into acid insoluble RNA products. Unincorporated radiolabeled substrate was removed by filtration and scintillant was added to the washed and dried filter plate containing radiolabeled RNA product. The amount of RNA product generated by NS5B570-Con1 at the end of the reaction was directly proportional to the amount of light emitted by the scintillant.
The N-terminal 6-histidine tagged HCV polymerase, derived from HCV Con1 strain, genotype 1b (NS5B570n-Con1) contains a 21 amino acid deletion at the C-terminus relative to the full-length HCV polymerase and was purified from E. coli strain BL21 (DE) pLysS. The construct, containing the coding sequence of HCV NS5B Con1 (GenBank accession number AJ242654) was inserted into the plasmid construct pET17b, downstream of a T7 promoter expression cassette and transformed into E. coli. […]
The amount of light emitted from the scintillant was converted to counts per minute (CPM) on a Topcount® plate reader (Perkin-Elmer, Energy Range: Low, Efficiency Mode: Normal, Count Time: 1 min, Background Subtract: none, Cross talk reduction: Off).
Data was analyzed in Excel® (Microsoft®) and ActivityBase® (Idbs®). […] All data was expressed as a percentage of the positive control. […]

rat hepatocytes = test: NTP generation in rat hepatocytes; assay type: in vitro ADME, male Wistar rats; settings: for Rat hepatocyte NTP: Table 2
Experimental: Hepatocytes were prepared from male Wistar rats (250-300 g) according to the procedure of Berry and Friend (Berry, M. N.; Friend, D. S. J. Cell Biol. 1969, 43, 506-520) as modified by Groen (Groen, A. K.; Sips, H. J.; Vervoom, R. C.; Tager, J. M. Eur. J. Biochem. 1982, 122, 87-93). Hepatocytes (20 mg/mL wet weight, >85% trypan blue viability) were incubated at 37° C. in 2 mL of Krebs-bicarbonate buffer containing 20 mM glucose, and 1 mg/mL BSA for 2 h in the presence of 10 μM nucleoside or prodrug (from 10 mM stock solutions in DMSO, n>4).
Following the incubation of 4′-azidocytidine analogues, 1600 μL aliquot of the cell suspension was centrifuged and 300 μL of acetonitrile was added to the pellet, vortexed and sonicated until the pellet broke down. Then 200 μL of water was added to make a 60% acetonitrile solution. After 10 min centrifugation at 14,000 rpm, the resulting supernatant was transferred to a new vial and evaporated to near dryness in a Savant SpeedVac Plus at room temperature. The dried residue was reconstituted with 200 μL of water and the mixture was centrifuged for 10 min at 14,000 rpm. A mixture of 35 μL aliquot of supernatant and 35 μL of mobile phase A (20 mM N—N-dimethylhexylamine and 10 mM propionic acid in 20% methanol) was analyzed by LC-MS/MS (Applied Biosystems, API 4000) equipped with an Agilent 1100 binary pump and a LEAP injector. NTP was detected by using MS/MS mode (M-/78.8) and quantified based on comparison to a standard of 2′-C-methyladenosine-5′-triphosphate for 4′-azidocytidine and the compound described in Example 1.
Following incubation of the 4′-azidouridine analogues, 1600 μL aliquot of the cell suspension was centrifuged and 500 μL of acetonitrile containing 0.1 mg/mL dicyclohexylcarbodiimide (DCCD) and 0.1% ammonium hydroxide was added to the pellet and vigorously mixed by vortexing. Liver extracts were analyzed by LC-MS/MS using a Luna NH2 column (5 micron, 2×50 mm, Phenomenex) fitted with a SecurityGuard C18 guard column (5 micron, 4.0×2.0 mm, Phenomenex) and eluted with a gradient from mobile phase A (10 mM ammonium acetate in 50% acetonitrile) to B (1 mM ammonium acetate in 50% acetonitrile containing 1% concentrated ammonium hydroxide) at a flow rate of 0.6 mL/min. The injector temperature was set at 4° C. 4′-AUMP, 4′-AUDP, and […] were detected using the MS/MS mode (364.1/150.8 for 4′-AUMP, 444.1/176.8 for 4′-AUDP, and 524.1/158.9 for 4′-AUTP) and quantified by comparison of peak areas to standard curves obtained by spiking known concentrations of the analytes to blank liver extract.

[2] = test system: hepatitis C virus replicon; settings: cited from earlier work
[3] = Evaluation of liver NTP levels in rat; assay type: in vivo, Sprague-Dawley or Wistar rats; settings: i.v. administration as printed
[4] = Rat portal vein pharmacokinetic study; set-up: species or system Male Hanover-Wistar (HW) rats; settings: in vivo, 7 mg/kg
Experimental: Pharmacokinetic analysis of the esters was carried out as described in Example 2. The calculated value for % Fhepatic is the ratio of measured of the quantity present in the post-hepatic
[formula] circulation (AUCjugular) to the pre-hepatic concentration (AUCportal). This value reflects uptake of the prodrug by hepatocytes. […] These values reflect observed concentrations of non-esterified drug phosphate 26a. The calculated value % Fgut is the ratio of the concentration
[formula] of 26a observed in the portal vein which directly reflects absorption through the gut compared to the concentration observed in the jugular vein after i.v. administration of the same dose. Increased absorption through the gut will increase the observed % Fgut.
Male Hanover-Wistar (HW) rats were obtained from Charles River Laboratories (Wilmington, Mass.). […] Plasma samples were extracted by protein precipitation and analyzed by liquid chromatography coupled to tandem mass spectrometry (LC/MS/MS) for concentrations of 26b, 26a and 20.
Pharmacokinetic parameters were calculated using a non-compartmental model in Watson software (Watson, Thermo Fisher, Waltham, Mass.). % Fhepatic was calculated from the dose-normalized area under the curve (AUC) values obtained from sampling either the portal or jugular vein after PO administration as follows: […]

HCV [5] = settings: phase 2 study, 1500 mg BID for 14 days; cited from earlier work
HCV [6] = settings: chimpanzee, 7 days, cited from earlier work

For `[N-]=[N+]=N[C@]1(COP(=O)(O)O)O[C@@H](n2ccc(=O)[nH]c2=O)[C@H](O)[C@@H]1O` [4′-AU monophosphate], which IC50 [1] is on record?
Its IC50 is 218 nM.

Which results are given for `[N-]=[N+]=N[C@]1(CO)O[C@@H](n2ccc(=O)[nH]c2=O)[C@H](O)[C@@H]1O` [4′-azidouridine]?
Rat hepatocyte NTP (rat hepatocytes; 10 μM): <LOQ; EC50 [2]: > 100000 nM; potency in the cell-based replicon assay [2]: inactive

What does the source list for `[N-]=[N+]=N[C@]1(CO[P@@]2(=O)OCC[C@@H](c3cccc(Cl)c3)O2)O[C@@H](n2ccc(N)nc2=O)[C@H](O)[C@@H]1O` [Example 1, 4′-azido-cis-5′-O-[4-(S)-(3-chlorophenyl)-2-oxo-1,3,2-dioxaphosphorinan-2-yl]-cytidine]?
NTP levels after administration to a rat [3]: very low levels; nucleoside triphosphate levels in treated rat hepatocytes (rat hepatocytes): dose dependent increase

With `[N-]=[N+]=N[C@]1(CO[P@@]2(=O)OCC[C@@H](c3cccc(Cl)c3)O2)O[C@@H](n2ccc(=O)[nH]c2=O)[C@H](O)[C@@H]1O` [Example 2, 4′-azido-cis-5′-O-[4-(S)-(3-Chlorophenyl)-2-oxo-1,3,2-dioxaphosphorinan-2-yl]uridine] as the compound, how does the “NTP levels after administration to a rat” value [3] read?
The value was “elevated levels”.

What about the “nucleoside triphosphate levels in treated rat hepatocytes” value (rat hepatocytes) of the same compound?
The value was “dose dependent increase”.

With `[N-]=[N+]=N[C@]1(COP2(=O)OCC[C@@H](c3ccc(Br)cc3F)O2)O[C@@H](n2ccc(=O)[nH]c2=O)[C@H](O)[C@@H]1O` (some centres unmarked) [Example 43] as the compound, how does the “circulating diester after oral dosing” value [4] read?
The value was “no circulating diester is observed”.

With `C[C@H](NP(=O)(OC[C@@]1(N=[N+]=[N-])O[C@@H](n2ccc(=O)[nH]c2=O)[C@H](O)[C@@H]1O)Oc1cccc2ccccc12)C(=O)OCc1ccccc1` (some centres unmarked) [Example R0142] as the compound, how does the EC50 [2] read?
The EC50 was 220 nM.

For `[N-]=[N+]=N[C@]1(CO)O[C@@H](n2ccc(N)nc2=O)[C@H](O)[C@@H]1O` [Example R1479, 4′-azidocytidine], which “Rat hepatocyte NTP” value (rat hepatocytes; 10 μM) is on record?
Its value is “<LOQ”.

What about the “nmol NTP/g @ 10 μM (±SEM)” value (rat hepatocytes; rat hepatocytes, 10 μM, 2 h, Table 4) of the same compound?
Its value is “<LOQ”.

What about the EC50 [2] of the same compound?
Its EC50 is 1280 nM.

And the “potency in the cell-based replicon assay” value [2]?
Its value is “reasonable potency”.

For `CC(C)C(=O)OC[C@@]1(N=[N+]=[N-])O[C@@H](n2ccc(N)nc2=O)[C@H](OC(=O)C(C)C)[C@@H]1OC(=O)C(C)C` [Example R1626], which “mean reduction in serum viral titer” value (HCV [5]) is on record?
Its value is 1.2 log10.

With `C[C@@]1(O)[C@H](O)[C@@H](CO)O[C@H]1n1ccc2c(N)ncnc21` [MK-0608] as the compound, how does the “reduction in viral titer” value (HCV [6]; intravenous dose of 2 mg/kg/day) read?
Its value is > 5 log10.

For `CC(C)C(N)C(=O)O[C@@H]1[C@@H](CO)O[C@@H](n2ccc(N)nc2=O)[C@]1(C)O` (some centres unmarked) [NM283], which “reduction in viral titer” value (HCV [6]; 16.6 mg/kg/day) is on record?
Its value is 1.15 log10.
